Test results as given in ChEMBL document CHEMBL1132430, “Protein kinase C ligands based on tetrahydrofuran templates containing a new set of phorbol ester pharmacophores” (J Med Chem, 1999).

The molecules below were run against Protein kinase C alpha type (Homo sapiens, UniProt P17252) (assay: Displacement of [3H-20]-phorbol 12,13-dibutyrate(PDBU) from recombinant Protein kinase C alpha).

In order of falling Ki:
1. CCCCCCCCCCCCCCOC(=O)C[C@@H]1CC[C@@](CO)(COC(=O)CCCCC)O1  12800 nM
2. CCCCCCCCCCCCCC(=O)OC[C@]1(CO)CC[C@@H](CC(=O)OC)O1  10800 nM
3. CCCCCCCCCCCCCC(=O)OC[C@]1(CO)CC[C@H](CC(=O)OC)O1  2720 nM
4. CCCCCCCCCCCCCCOC(=O)C[C@H]1CC[C@@](CO)(COC(=O)CCCCC)O1  2380 nM
5. CCCCCCCC/C=C\CCCCCCCCOC(=O)/C=C1/COC(CO)(COC(C)=O)C1 (stereo not drawn)  1860 nM
6. CCCCCCCC/C=C\CCCCCCCCOC(=O)/C=C1\COC(CO)(COC(C)=O)C1 (stereo not drawn)  850 nM
7. CCCCCCCCCCCCCC(=O)OCC1(CO)C/C(=C\C(=O)OC)CO1 (stereo not drawn)  350 nM
8. CCCCCCCCCCCCCC(=O)OCC1(CO)C/C(=C/C(=O)OC)CO1 (stereo not drawn)  350 nM
